This assay can be described thus: growth inhibition of yeast carrying parasite Hsp90, dose response, anti-malarial Hsp90 inhibitor project, ATP luminescence, 48 h, cherry-picked samples (AID 540268).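 For activity change, negative = inhibition: 0% = neutral control wells and -100% = positive control wells.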 To be noted: yeast expressing the parasite Hsp90, ATP luminescence; for activity change, negative = inhibition: at 26 µM (top of the series).

Experimental findings from PubChem BioAssay AID540268 (Broad Institute, 2011) are described below.

SMILES strings stand for the structures. Active and inactive are the calls of the source. The rule behind the calls is not given here.

As usually defined, the AC50 is the concentration at which the activity in the assay is half-maximal.

Consider `CC(C)=CCc1cc([C@@H]2COc3c(ccc4c3C=CC(C)(C)O4)C2)c(O)cc1O`, for which the AC50 is 0.265 µM.

Regarding `O=C1CC(c2ccccc2)=NN1c1nc(-c2ccccc2)cs1`, the AC50 was 1.14 µM.

For the compound `CCOC(=O)C1=Nc2ccccc2C1=[N+]=[N-]`, the AC50 was 0.532 µM.

For the compound `O=[N+]([O-])c1ccc(C=Nc2ccc(Cl)cc2Cl)s1`, the AC50 was 8.6 µM.

As to `COc1cc(N=c2ssnc2Cl)c(OC)cc1Cl`, the activity change, negative = inhibition was -119% (inactive).

Take `CCCOc1ccc(N2C(=O)CC(N3CCC(C(=O)OCC)CC3)C2=O)cc1` (configuration not stated): the AC50 is 6.07 µM.

For the compound `Oc1ccc(-c2nc3ccc4ccccc4c3c3c2CCC3)cc1O`, the AC50 was 8.29 µM.

On to `O=C(O)/C=C/c1cn(-c2ccccc2)nc1-c1cc2ccccc2o1`, for which the AC50 was 16 µM.

For the compound `Cc1ccc(C(C[N+](=O)[O-])Sc2ccc(N)cc2)cc1` (configuration not stated), the AC50 was 6.83 µM.

For the compound `Cc1cc(-c2n[nH]c(=S)n2/N=C/C(Br)=C/c2ccccc2)n[nH]1`, the half-maximal activity concentration (AC50) was 15 µM.

Regarding `COC1CCC(OC2CC(C3(C)CCC4(CC(O)C(C)C(C(C)/C=C(\C)C(=O)C(C)CC(C)C(=O)O)O4)O3)OC3(OC(C4OC(O)(CO)C(C)CC4C)CC3C)C2C)OC1C` (configuration not stated), the AC50 is 4.84 µM.

Turning to `Cc1cc(/C=C2\SC(=S)NC2=O)c(C)n1-c1ccc(O)cc1`, the AC50 is 4.65 µM.

As for `Cc1ccc(S(=O)(=O)Nc2ccc3cc([N+](=O)[O-])ccc3c2[N+](=O)[O-])cc1`, the AC50 was 11.9 µM.

For `Oc1cccc2ccc(/C=C/c3ccccc3Cl)nc12`, the AC50 is 16.3 µM.

As to `CCOc1ccc(S(=O)(=O)NCc2ccccn2)c(C)c1C`, the activity change, negative = inhibition is 14.4% (inactive).

As for `CC(=O)NC(c1ccc(C)cc1)c1cc(Cl)c2cccnc2c1O` (configuration not stated), the AC50 was 4.09 µM.

As for `O=C(/C=C/c1cccc(Cl)c1)c1ccc([N+](=O)[O-])o1`, the AC50 is 0.84 µM.

On to `COc1ccc(S(=O)(=O)NC2CC3CCC2C3)cc1Br` (configuration not stated), for which the AC50 is 3.52 µM.

Consider `Oc1ccc(C2=NN(c3ccccc3)C(c3ccc(F)cc3)C2)cc1` (configuration not stated), for which the AC50 is 3.35 µM.

In the case of `CN(C)/C=C/C(=O)/C=C/c1cn(-c2ncc(C(F)(F)F)cc2Cl)c2ccccc12`, the AC50 is 4.18 µM.

Regarding `Cc1ccc(C(c2cc(Cl)c3cccnc3c2O)N2CCN(C)CC2)cc1` (configuration not stated), the AC50 is 0.507 µM.

With `O=C(/C=C/c1ccccc1)c1cc(Br)ccc(=O)c1O`, the AC50 is 1.51 µM.

Turning to `C=C(C)COc1ccc(-c2[nH]ncc2Oc2cccc(OC)c2)c(O)c1`, the AC50 was 8.1 µM.

Regarding `CC(C)(C)c1nn(-c2ccccc2)c2[nH]c(=O)c(C=O)cc12`, the AC50 was 1.31 µM.

On to `Cc1ccc(C(C[N+](=O)[O-])c2c(N)n(C)c(=O)n(C)c2=O)cc1` (configuration not stated), for which the AC50 was 3.33 µM.

`CCCCCCC(Cl)(Cn1ccnc1)c1ccccc1` (configuration not stated): the AC50 was 8.41 µM.

For `Oc1ccc(Cl)cc1Sc1cc(Cl)ccc1O`, the AC50 is 3.07 µM.

Turning to `CC(=O)Oc1ccccc1C(=O)C=Cc1cccc([N+](=O)[O-])c1`, the AC50 was 1.66 µM.

Consider `CCn1c(CNc2ccc(Cl)cc2)nnc1SCc1ccc(C)cc1`, for which the AC50 is 8.23 µM.

For `O=C1CC(N2CCC(c3nc4ccccc4o3)CC2)C(=O)N1c1ccc(Cl)c(C(F)(F)F)c1` (configuration not stated), the AC50 is 4.08 µM.

Take `O=C1Nc2ccc(Br)cc2C12NNc1ccccc1O2` (configuration not stated): the AC50 is 1.46 µM.

Take `Cc1cc(/C=C2\SC(=S)N(C)C2=O)c(C)n1-c1ccc(O)cc1`: the AC50 is 8.33 µM.

Turning to `Cc1sc(NC(=O)c2ccco2)c(C(c2cccnc2)N2CCC(C)CC2)c1C` (configuration not stated), the AC50 was 7.74 µM.

In the case of `CC(=NNc1nc2ccccc2o1)c1ncccn1`, the AC50 was 1.33 µM.

On to `O=c1cc(-c2ccccc2)cc(-c2ccccc2)n1O`, for which the AC50 is 1.17 µM.

For the compound `CC(Oc1ccc(Cl)cc1)C(=O)NNC(=S)NC(=O)c1ccco1` (configuration not stated), the AC50 is 1.94 µM.

For `Cc1cccc(CS(=O)(=O)c2ncc(Cl)c(C(=O)Nc3ccc(F)cc3)n2)c1`, the AC50 was 2.92 µM.

With `Cc1ccc2nc(-c3cccc(NS(C)(=O)=O)c3)cc(-c3ccccc3)c2c1`, the AC50 is 9.6 µM.

Consider `COc1ccc(C(C[N+](=O)[O-])c2c(C)[nH]n(-c3ccccc3)c2=O)cc1` (configuration not stated), for which the AC50 is 7.77 µM.

As to `O=C1C=CC(=O)N1c1cccc(-c2ccccc2)c1`, the AC50 is less than 0.195 µM.

`O=C(NC(c1ccc(Cl)cc1)c1cc(Cl)c2cccnc2c1O)c1cccnc1` (configuration not stated): the concentration at half-maximal activity (AC50) was 24.4 µM.

For the compound `O=C(Nc1nc(-c2ccccn2)cs1)c1ccc(Br)s1`, the AC50 is 2.18 µM.

In the case of `CCOc1ccc2nc(NC(=O)c3ccoc3C)sc2c1`, the AC50 is 6.99 µM.

Regarding `Oc1cc(Cl)ccc1Oc1ccc(Cl)cc1Cl`, the AC50 was 7.54 µM.

In the case of `C/C(=N\NC(=O)c1cc2ccccc2cc1O)c1ccccn1`, the AC50 was 8.31 µM.

As for `Oc1ccc(C=NN=C2c3ccccc3-c3ccccc32)c(O)c1`, the AC50 was 1.86 µM.

On to `CC(=O)NC(c1ccc(C(C)C)cc1)c1ccc2cccnc2c1O` (configuration not stated), for which the concentration at half-maximal activity (AC50) was 2.24 µM.

For the compound `O=C(N/N=C/c1sc2ccccc2c1O)c1ccccc1`, the AC50 is 1.13 µM.

Regarding `Cc1nnc(N=c2ssnc2Cl)o1`, the AC50 is 1.03 µM.

With `CC1=C(C)/C(=N\OS(=O)(=O)c2ccc(C)cc2)C=CC1=O`, the AC50 was 1.22 µM.

With `COc1ccc(S(=O)(=O)N(C(=O)c2ccncc2)c2ccc(OC(=O)c3ccncc3)cc2)cc1`, the AC50 was 1.68 µM.

In the case of `Cc1cc(C)c(S(=O)(=O)NCC23C=CC(O2)C2C(=O)N(c4ccccc4)C(=O)C23)c(C)c1` (configuration not stated), the AC50 was 3.21 µM.

As to `Oc1ccc(N=Nc2nc(-c3ccccc3)c(-c3ccccc3)[nH]2)cc1`, the half-maximal activity concentration (AC50) was 6.13 µM.

Regarding `COc1cc2cc(C(=O)N3CC(COS(C)(=O)=O)c4ccc(O)cc43)[nH]c2c(OC)c1OC` (configuration not stated), the AC50 is 1.55 µM.

`COc1ccc(C(=O)COC(=O)c2cc([N+](=O)[O-])ccc2N2CCOCC2)c(OC)c1`: the AC50 is 13.8 µM.

Take `CCN(C(=O)C1CCCN(c2nc(-c3ccc(OC)cc3)no2)C1)c1ccc(OC)cc1` (configuration not stated): the AC50 was 4.85 µM.

Consider `Clc1ccc(CSC(Cn2ccnc2)c2ccc(Cl)cc2Cl)cc1` (configuration not stated), for which the AC50 is 0.576 µM.

Turning to `CC(=NNC(=S)N(Cc1ccccn1)Cc1ccccn1)c1cnccn1`, the AC50 was 3.95 µM.

In the case of `O=C1C=CC(=O)N1N(c1ccccc1)c1ccccc1`, the AC50 was 3.38 µM.

As to `COc1ccc2c3c(ccc2c1)C(=O)/C(=C/O)CC3`, the AC50 is 4.29 µM.

Take `Cc1ccc(N2C(=O)C3C4C=CC(CNC(=S)N5CCN(c6ccccc6)CC5)(O4)C3C2=O)cc1` (configuration not stated): the AC50 is 6.93 µM.

With `COc1ccc(C(=O)Nc2cc(C(=O)c3ccccc3)c(C)oc2=O)cc1`, the activity change, negative = inhibition was 36.8% (inactive).

Turning to `CCC1=NN2C(=N)/C(=C\c3cccn3-c3ccc(C)cc3C)C(=O)N=C2S1`, the AC50 was 8.14 µM.

For `O=[N+]([O-])c1cc(S(=O)(=O)C(F)(F)F)ccc1Sc1nc2ccccc2s1`, the AC50 was 3.43 µM.

On to `COc1ccc(C(C)(C)C)cc1NC(=O)Nc1ccc2c(c1)OCO2`, for which the AC50 was 8.96 µM.

Regarding `Cc1csc(CNc2ncnc3ccc(-c4cccc(Cl)c4)cc23)c1`, the AC50 was 8.17 µM.

Take `O=C(N/N=C/c1cc2c3c(c1O)CCCN3CCC2)c1ccccc1O`: the AC50 is 1.42 µM.

As for `Cc1ccc2nc(-c3ccc(NS(=O)(=O)c4ccc(F)cc4)cc3)sc2c1`, the activity change, negative = inhibition was 144% (inactive).

Regarding `CC(C)C(=O)NC(c1cccc([N+](=O)[O-])c1)c1ccc2cccnc2c1O` (configuration not stated), the concentration at half-maximal activity (AC50) was 2.73 µM.

Take `O=C(OCC(=O)N1CCN(C(=O)c2ccco2)CC1)c1cc(-c2cccc(Br)c2)nc2ccccc12`: the AC50 was 4.39 µM.

With `Oc1cc(OCc2ccccc2)ccc1-c1[nH]ncc1-c1ccccc1`, the AC50 was 9.04 µM.

Take `CCCCCCCCOC(=O)c1cc([N+](=O)[O-])c(Sc2ncnc3nc[nH]c23)c([N+](=O)[O-])c1`: the AC50 is 1.4 µM.

As for `O=C(CN1CCN(c2ncc(C(F)(F)F)cc2Cl)CC1)NCCNc1ncc(C(F)(F)F)cc1Cl`, the AC50 is 3.49 µM.

Consider `O=C(NNC1=C(C(=O)C(F)(F)F)CCC1)c1ccc(Br)cc1`, for which the AC50 was 0.759 µM.

Take `CC1(C)C=Cc2c(ccc3c2OC[C@H](c2ccc(O)cc2O)C3)O1`: the AC50 was 4.6 µM.

`CCC(=O)NC(c1cccs1)c1ccc2cccnc2c1O` (configuration not stated): the AC50 was 7.69 µM.

As to `Cc1ccc(OCC(=O)NNC(=S)NC(=O)C2CC2)c(C)c1`, the AC50 was 4.16 µM.

`O=C(Nc1nc(-c2ccccn2)cs1)c1ncc(Cl)c(Cl)c1Cl`: the AC50 is 2.9 µM.

Turning to `Cc1ccc(/C=C/C(=O)c2ccccc(=O)c2O)cc1C`, the AC50 is 8.01 µM.

For `O=C1C=CC(=O)N1c1ccc(N2CCCCC2)cc1`, the AC50 is 0.312 µM.

Take `Oc1ccc(-c2c(-c3ccsc3)sc3ccccc23)cc1`: the AC50 was 2.72 µM.

As to `O=C(c1ccc(Cl)cc1)N1CCN(c2ccc(F)cc2)CC1`, the AC50 was 4.47 µM.

Regarding `CCc1ccc2c(c1)/C(=C/C(=O)c1cccs1)C(=O)N2`, the AC50 is 4.7 µM.

Regarding `O=C(Oc1c(Cl)cc(Cl)c2cccnc12)c1cccc([N+](=O)[O-])c1`, the AC50 was 16 µM.

Take `O=C(Nc1ccccc1)c1nnsc1S(=O)(=O)c1ccc(Cl)cc1`: the AC50 was 0.435 µM.

On to `O=[N+]([O-])c1cc(Cc2ccccc2)cc(C=Nc2ccc(N3CCOCC3)cc2)c1O`, for which the AC50 was 3.46 µM.

Regarding `Cc1ccc(N=Cc2cc(Cc3ccccc3Cl)cc([N+](=O)[O-])c2O)c(O)c1`, the AC50 was 0.216 µM.

For the compound `Cc1cccc(NC(=S)N/N=C/c2ccc([N+](=O)[O-])s2)c1`, the activity change, negative = inhibition is -14.3% (inactive).

With `COc1cc(SC)ccc1C(=O)Nc1nc2ccccc2[nH]1`, the AC50 was 1.96 µM.

Turning to `CN(C)c1ccc(-n2cccc2/C=C/[N+](=O)[O-])cc1`, the AC50 is 4.83 µM.

Regarding `COc1cccc(/C=N/Nc2ccc([N+](=O)[O-])cn2)c1O`, the half-maximal activity concentration (AC50) is 4.36 µM.

For the compound `CC(=NNc1nc2ccccc2s1)c1ncccn1`, the AC50 is 2.36 µM.

As for `O=C(NN1C(=O)/C(=C/c2ccc(O)c([N+](=O)[O-])c2)SC1=S)c1ccccc1Cl`, the AC50 was 4.13 µM.

On to `Cc1ccc(/C=C2/NC(=O)N(Cc3ccc(Br)cc3)C2=O)o1`, for which the activity change, negative = inhibition was 47.3% (inactive).

For the compound `O=Cc1ccc(O)c2ncccc12`, the AC50 was less than 0.195 µM.

`CCOC(=O)c1ccc(N2C(=O)CC(N3CCC(Nc4ccc(F)cc4)CC3)C2=O)cc1` (configuration not stated): the concentration at half-maximal activity (AC50) is 4.58 µM.

In the case of `O=[N+]([O-])c1cc(-n2cnnn2)ccc1N1CCC(Cc2ccccc2)CC1`, the AC50 was 4.23 µM.
